Key:
Type in all cases: cell-based
[1] = biological target: T1, RACK1A Y248 phosphorylation (Arabidopsis thaliana, UniProt O24456); assay: Stress hormone (ABA) induced RACK1A Y248 phosphorylation in Arabidopsis seedlings, western blot (FIG. 1); details: 10 uM ABA, 12 hours
T1 construct: from tissue; host or cells: one-week old Arabidopsis seedlings (whole-seedling lysate)
Text: The results of lab experiment establish the compounds identified by in silico screen to prevent RACK1 Y248 phosphorylation can inhibit RACK1 Y248 phosphorylation and confirm their utility in their application in RACK1 mediated cellular pathways. Y248 phosphorylation has previously been identified as a key event needed for RACK1 mediated scaffolding activities by regulating protein-protein interactions in plants. The corresponding residue in human RAKI is also a key requirement for scaffolding activities needed at the receptor level during the invasion and migration of cancer cells. […] The knock-out plant did maintain both the RACK1B protein and the RACK1C protein, but the antibody was raised to detect the RACK1A Y248 phosphorylation only.
As to FIG. 1, since RACK1 is a regulator of plant stress hormone Abscisic acid (ABA) (Guo et al., 2009), one-week old Arabidopsis seedlings were treated with 10 uM of ABA in the presence/absence of the inhibitor compounds for 12 hours in a growth chamber (overnight) at 22 C mostly in the night dark. Lysates isolated in buffer (Cell Signaling, MA) supplemented with plant protease inhibitor (Sigma-Aldrich), Protein Tyrosine phosphatase inhibitors (Santa Cruz Biotechnology, TX), and N-Ethylamaleimide (Sigma-Aldrich) at 25 mM to inhibit de-sumoylation. […]

[2] = tested on: U251 cells; assay: Wound migration assay (FIG. 9); details: TGF, 0 h and 14 h after wounding
Text: During tumorigenesis, the epithelial-mesenchymal transition (EMT) plays a crucial role in migration and invasion of various cancers. EMT plays an essential role in tumor invasiveness and metastasis in cancer progression. Invasiveness (metastasis) of cancers is associated with a critical physiological process in which epithelial cells transition to mesenchymal transition or differentiation (EMT). Epithelial cells are not regarded as motile. However, in EMT, epithelial cells lose their epithelial characteristics, including their polarity (apical-basal polarity) and specialized cell-cell junctions, to acquire motility (migratory ability) behavior to become invasive mesenchymal cells, (e.g., Qu et al., Int. J. Clin. Exp. Med., 10 (6): 9019-9028 (2017); Xu et al., Cell Res. 19:156-172 (2009)). The motile mesenchymal cells can move (migrate) into surrounding tissue, even remote tissue. […] A wound was created by sliding a tip of a plastic pipette on the surface of almost 100 percent confluent cells and the size of the wound was measured at 0 h and after 14 h of wound creation. […]
In FIG. 10 and FIG. 11, U251 cells were plated in six-well plates and were allowed to reach about 90%-100% density. […] The size of wound was measured under a microscope at 0 and 14 h after wounding.

[3] = tested on: RACK1 / LamB1 co-localization; assay: Co-localization of RACK1 with ECM protein LamB1, immunofluorescence (FIG. 11); details: U251 cells, TGFbeta1, 72 h
Text: For effective migration, cell adhesion to the ECM is necessary and cell surface localized integrin molecules (alpha and beta) act as a link between the ECM and cell interior by acting as a receptor of the ECM proteins and linking ECM to the intracellular cytoskeleton complex. It is known that RACK1 acts as an integrin binding protein (Hermanto et al., 2002) and interaction between RACK1 and β1 integrin has been reported to mediate cancer cell invasion as reported in prostate cancer invasion and metastasis (Trerotola et al., 2012). RACK1 can promote tumor cell migration by using its scaffolding ability to bridge together different signaling proteins that integrate signaling from receptors cytoskeleton reorganization pathways. Laminin being a major ECM protein can therefor interact with integrins for cell adhesion and in this regard is expected to modulate by the RACK1 proteins scaffolding ability as discussed above. […] Lack of colocalization indicate that the link between the ECM proteins and intracellular cytoskeleton complex are interrupted and as such inhibiting this complex mediated migration signaling pathways.
As to FIG. 11, and methods of Immunofluorescence and confocal microscopy, U251 cells were grown to about 80% confluency in 12 well plate on glass cover slips and the cells were co-treated with the TGFb and indicated compounds for 72 h. […]

[4] = Toxicity judged from DAPI treated cell nucleus in immunofluorescence experiments; details: 100 μM
Description: However, 100 μM might be a high concentration or dosing and may be higher than physiologically potent concentration.

T1 sequence (O24456 whole entry): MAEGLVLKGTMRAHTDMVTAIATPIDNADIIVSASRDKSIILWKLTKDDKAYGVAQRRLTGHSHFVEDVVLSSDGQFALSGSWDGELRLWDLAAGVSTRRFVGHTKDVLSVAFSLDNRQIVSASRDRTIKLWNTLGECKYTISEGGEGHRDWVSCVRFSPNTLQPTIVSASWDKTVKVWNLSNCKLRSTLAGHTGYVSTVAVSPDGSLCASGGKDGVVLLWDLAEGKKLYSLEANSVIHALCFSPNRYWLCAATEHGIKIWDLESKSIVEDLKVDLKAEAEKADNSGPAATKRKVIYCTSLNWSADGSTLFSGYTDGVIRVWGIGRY

Q: Which “RACK1A Y248 phosphorylation with stress hormone present” value [1] does the source give for `Nn1c(S)nnc1-c1cc(Cl)cc(Cl)c1` [SD 29-14] here?
A: prevents Y248 phosphorylation

Q: And the “cell migration into wound” value [2]?
A: the cells failed to migrate to cover the clear area

Q: And the “co-localization of RACK1 and Lamb1 at the cell surface” value [3]?
A: this interaction was absent

Q: What about the “toxicity to cells (uniform DAPI treated cell nucleus, drug treated vs non-treated)” value [4] of the same molecule?
A: not exposed to a toxic amount

— patent US12629355B2, “Drug inhibitor against migration and invasion of cancer cells and methods of treating against metastasis of cancer cells” (HOWARD UNIVERSITY, priority 2019, dated 2026)
